Data as given in patent publication US20260265265A1, “NOVEL BENZIMIDAZOLONE DERIVATIVE COMPOUND AS AUTOTAXIN INHIBITOR” (LG CHEM, LTD., priority 2023, published 2026).

Biological target: T1, Recombinant Human ENPP-2/Autotaxin (Homo sapiens, UniProt Q13822)
T1 construct: purchased R&D systems 5255-EN
Experiment: LysoPLD activity measurement (autotaxin enzyme inhibition, choline release, TOOS reagent)
Type: biochemical
Details: LysoPLD inhibitory activity; substrate 14:0 LysoPC; absorbance at 555 nm
Outline: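 Enzyme and compound were preincubated for 30 min before adding 14:0 LysoPC substrate, diluted to 300 μM, for 90 minutes at 37° C. The choline product was quantified colorimetrically with TOOS reagent. Wells without compound held 1% DMSO.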

| SMILES | IC50 [nM] |
| --- | --- |
| O=C(O)c1cccc(C2(n3c(=O)n(-c4ccc(-c5nnc(C6CCOCC6)o5)cc4)c4cc(Cl)ccc43)CC2)c1F [Example 268, 3-(1-(5-chloro-2-oxo-3-(4-(5-(tetrahydro-2H-pyran-4-yl)-1,3,4-oxadiazol-2-yl)phenyl)-2,3-dihydro-1H-benzo[d]imidazol-1-yl)cyclopropyl)-2-fluorobenzoic acid] | < 10 |
| O=C(O)c1cccc(Cn2c(=O)n(-c3ccc(N4CCOCC4)nc3)c3cc(Cl)ccc32)c1 [Example 78, 3-((5-chloro-3-(6-morpholinopyridin-3-yl)-2-oxo-2,3-dihydro-1H-benzo[d]imidazol-1-yl)methyl)benzoic acid] | 10 to 100 |
| CC(C)Oc1ccc(-n2c(=O)n(Cc3cccc(C(=O)O)c3F)c3ccc(Cl)cc32)cc1 [Example 40, 3-((5-chloro-3-(4-isopropoxyphenyl)-2-oxo-2,3-dihydro-1H-benzo[d]imidazol-1-yl)methyl)-2-fluorobenzoic acid] | 10 to 100 |
| CC1(C)OCc2cc(-n3c(=O)n(C4(c5cc(F)cc(C(=O)O)c5)CC4)c4ccc(Cl)cc43)ccc21 [Example 252, 3-(1-(5-chloro-3-(1,1-dimethyl-1,3-dihydroisobenzofuran-5-yl)-2-oxo-2,3-dihydro-1H-benzo[d]imidazol-1-yl)cyclopropyl)-5-fluorobenzoic acid] | < 10 |
| O=C(O)c1cccc(C2(n3c(=O)n(-c4ccc(C5CCOCC5)cc4)c4cc(Cl)cnc43)CC2)c1F [Example 228, 3-(1-(6-chloro-2-oxo-1-(4-(tetrahydro-2H-pyran-4-yl)phenyl)-1,2-dihydro-3H-imidazo[4,5-b]pyridin-3-yl)cyclopropyl)-2-fluorobenzoic acid] | 10 to 100 |
| CC(C)Oc1ccc(-n2c(=O)n(Cc3cccc(C(=O)O)c3)c3ccc(Cl)cc32)cc1 [Example 14, 3-((5-chloro-3-(4-isopropoxyphenyl)-2-oxo-2,3-dihydro-1H-benzo[d]imidazol-1-yl)methyl)benzoic acid] | 10 to 100 |
| CCCn1cc(-n2c(=O)n(Cc3cccc(C(=O)O)c3F)c3ccc(Cl)c(F)c32)cn1 [Example 92, 3-((5-chloro-4-fluoro-2-oxo-3-(1-propyl-1H-pyrazol-4-yl)-2,3-dihydro-1H-benzo[d]imidazol-1-yl)methyl)-2-fluorobenzoic acid] | 10 to 100 |
| CN1Cc2cc(-n3c(=O)n(Cc4cccc(C(=O)O)c4)c4ccc(Cl)cc43)ccc2C1=O [Example 116, 3-((5-chloro-3-(2-methyl-1-oxoisoindolin-5-yl)-2-oxo-2,3-dihydro-1H-benzo[d]imidazol-1-yl)methyl)benzoic acid] | 100 to 1000 |
| CN(C)C(=O)c1ccc(-n2c(=O)n(Cc3cccc(C(=O)O)c3)c3ccc(Cl)cc32)cc1F [Example 36, 3-((5-chloro-3-(4-(dimethylcarbamoyl)-3-fluorophenyl)-2-oxo-2,3-dihydro-1H-benzo[d]imidazol-1-yl)methyl)benzoic acid] | 10 to 100 |
| O=C(O)c1cccc(Cn2c(=O)n(-c3ccc(N4CCC(F)(F)C4)nc3)c3cc(Cl)ccc32)c1F [Example 166, 3-((5-chloro-3-(6-(3,3-difluoropyrrolidine-1-yl)pyridin-3-yl)-2-oxo-2,3-dihydro-1H-benzo[d]imidazol-1-yl)methyl)-2-fluorobenzoic acid] | 100 to 1000 |
| CC(C)(c1cccc(C(=O)O)c1)n1c(=O)n(-c2ccc(N3CC(O)C3)cc2)c2cc(Cl)ccc21 [Example 154, 3-(2-(5-chloro-3-(4-(3-hydroxyazetidin-1-yl)phenyl)-2-oxo-2,3-dihydro-1H-benzo[d]imidazol-1-yl)propane-2-yl)benzoic acid] | 10 to 100 |
| O=C(O)c1cccc(Cn2c(=O)n(-c3ccc(N4CCOCC4)cc3)c3c(F)c(Cl)ccc32)c1 [Example 24, 3-((5-chloro-4-fluoro-3-(4-morpholinophenyl)-2-oxo-2,3-dihydro-1H-benzo[d]imidazol-1-yl)methyl)benzoic acid] | 10 to 100 |

Continued, values first:

| IC50 [nM] | SMILES |
| --- | --- |
| < 10 | O=C(O)c1cccc(C2(n3c(=O)n(-c4ccc(C(=O)N5CCC(F)(F)C5)cc4)c4cc(Cl)ccc43)CC2)c1 [Example 130, 3-(1-(5-chloro-3-(4-(3,3-difluoropyrrolidine-1-carbonyl)phenyl)-2-oxo-2,3-dihydro-1H-benzo[d]imidazol-1-yl)cyclopropyl)benzoic acid] |
| < 10 | O=C(O)c1cccc(C2(n3c(=O)n(-c4ccc(C(=O)N5CCC(F)(F)CC5)cc4)c4cc(Cl)ccc43)CC2)c1 [Example 131, 3-(1-(5-chloro-3-(4-(4,4-difluoropiperidine-1-carbonyl)phenyl)-2-oxo-2,3-dihydro-1H-benzo[d]imidazol-1-yl)cyclopropyl)benzoic acid] |
| < 10 | O=C(O)c1cccc(C2(n3c(=O)n(-c4ccc(C(=O)N5CCOCC5)cc4)c4cc(Cl)ccc43)CC2)c1 [Example 126, 3-(1-(5-chloro-3-(4-(morpholine-4-carbonyl)phenyl)-2-oxo-2,3-dihydro-1H-benzo[d]imidazol-1-yl)cyclopropyl)benzoic acid] |
| < 10 | O=C(O)c1cccc(C2(n3c(=O)n(-c4ccc(N5CCC(F)(F)CC5)cc4)c4cc(Cl)ccc43)CC2)c1 [Example 160, 3-(1-(5-chloro-3-(4-(4,4-difluoropiperidin-1-yl)phenyl)-2-oxo-2,3-dihydro-1H-benzo[d]imidazol-1-yl)cyclopropyl)benzoic acid] |
| 100 to 1000 | O=C(O)c1cccc(Cn2c(=O)n(-c3ccc(C4=CCCCC4)cc3)c3cc(Cl)ccc32)c1 [Example 109, 3-((5-chloro-2-oxo-3-(2′,3′,4′,5′-tetrahydro-[1,1′-biphenyl]-4-yl)-2,3-dihydro-1H-benzo[d]imidazol-1-yl)methyl)benzoic acid] |
| < 10 | O=C(O)c1cccc(C2(n3c(=O)n(-c4ccc(C(=O)N5CC6(COC6)C5)cc4)c4cc(Cl)ccc43)CC2)c1F [Example 135, 3-(1-(3-(4-(2-oxa-6-azaspiro[3.3]heptane-6-carbonyl)phenyl)-5-chloro-2-oxo-2,3-dihydro-1H-benzo[d]imidazol-1-yl)cyclopropyl)-2-fluorobenzoic acid] |
| < 10 | O=C(O)c1cccc(C2(n3c(=O)n(-c4ccc(S(=O)(=O)N5CCOCC5)cc4)c4cc(Cl)ccc43)CC2)c1 [Example 212, 3-(1-(5-chloro-3-(4-(morpholinosulfonyl)phenyl)-2-oxo-2,3-dihydro-1H-benzo[d]imidazol-1-yl)cyclopropyl)benzoic acid] |
| < 10 | CN(C)c1ccc(-n2c(=O)n(C3(c4cccc(C(=O)O)c4F)CC3)c3ccc(Cl)cc32)cc1 [Example 70, 3-(1-(5-chloro-3-(4-(dimethylamino)phenyl)-2-oxo-2,3-dihydro-JH-benzo[d]imidazol-1-yl)cyclopropyl)-2-fluorobenzoic acid] |
| 100 to 1000 | O=C(O)c1cccc(Cn2c(=O)n(-c3ccc(C4CCN(C(=O)C5CCC5)CC4)cc3)c3cc(Cl)ccc32)c1 [Example 101, 3-((5-chloro-3-(4-(1-(cyclobutanecarbonyl)piperidin-4-yl)phenyl)-2-oxo-2,3-dihydro-1H-benzo[d]imidazol-1-yl)methyl)benzoic acid] |
| < 10 | O=C(O)c1cccc(C2(n3c(=O)n(-c4ccc(C(=O)N5CC(F)(F)C5)cc4)c4cc(Cl)ccc43)CC2)c1 [Example 129, 3-(1-(5-chloro-3-(4-(3,3-difluoroazetidine-1-carbonyl)phenyl)-2-oxo-2,3-dihydro-1H-benzo[d]imidazol-1-yl)cyclopropyl)benzoic acid] |
| 10 to 100 | C[C@H]1COCCN1C(=O)Cc1ccc(-n2c(=O)n(C3(c4cccc(C(=O)O)c4)CC3)c3ccc(Cl)cc32)cc1 [Example 177, (S)-3-(1-(5-chloro-3-(4-(2-(3-methylmorpholino)-2-oxoethyl)phenyl)-2-oxo-2,3-dihydro-1H-benzo[d]imidazol-1-yl)cyclopropyl)benzoic acid] |
| < 10 | O=C(O)c1cccc(C2(n3c(=O)n(-c4ccc(-c5nnc(C6CC6)o5)cc4)c4cc(Cl)ccc43)CC2)c1 [Example 263, 3-(1-(5-chloro-3-(4-(5-cyclopropyl-1,3,4-oxadiazol-2-yl)phenyl)-2-oxo-2,3-dihydro-1H-benzo[d]imidazol-1-yl)cyclopropyl)benzoic acid] |
| 10 to 100 | O=C(O)c1cccc(C2(n3c(=O)n(-c4ccc(CC(=O)N5CCOCC5)cc4)c4cc(Cl)ccc43)CC2)c1 [Example 172, 3-(1-(5-chloro-3-(4-(2-morpholino-2-oxoethyl)phenyl)-2-oxo-2,3-dihydro-1H-benzo[d]imidazol-1-yl)cyclopropyl)benzoic acid] |
| < 10 | O=C(O)c1cccc(C2(n3c(=O)n(-c4ccc(C(=O)N5CCCCC5)cc4)c4cc(Cl)ccc43)CC2)c1 [Example 64, 3-(1-(5-chloro-2-oxo-3-(4-(piperidin-1-carbonyl)phenyl)-2,3-dihydro-1H-benzo[d]imidazol-1-yl)cyclopropyl)benzoic acid] |
